According to patent publication US20150119372A1, “APPLICATION OF 18-METHYL-15SS,16SS-METHYLENE-19-NOR-20-SPIROX-4-EN-3-ONE SYSTEMS IN THE TREATMENT OF MENORRHAGIA, AS WELL AS INTRAUTERINE SYSTEMS CONTAINING 18-METHYL-15SS,16SS-METHYLENE-19-NOR-20-SPIROX-4-EN-3-ONE FOR TREATING UTERINE BLEEDING DISORDERS” (BAYER PHARMA AKTIENGESELLSCHAFT, priority 2012, published 2015):

Legend:
[1] = Mirena use; cited from earlier work
[2] = In-vitro metabolic studies (liver); assay type: in vitro ADME; conditions: all in-vitro metabolic studies (liver)
[3] = In vitro (liver) break-down for humans; assay type: in vitro ADME; conditions: human liver in vitro
Method: The rapid in-vitro breakdown in the liver may also indicate rapid in-vivo breakdown, resulting in a very low systemic exposition of 18-methyl-15β,16β-methylene-19-nor-20-spirox-4-en-3-one and 18-Methyl-6α,7α,15β,16β-dimethylene-19-nor-20-spirox-4-en-3-one after administration through an IUS being calculated. The expected substance levels (Css=concentration at steady state) are calculated from the rate of release from the IUS divided by the clearance. Using a dose of 20 μg per day and woman, which corresponds to that of Mirena, gives a calculated systemic exposition (load) for 18-methyl-15β,16β-methylene-19-nor-20-spirox-4-en-3-one and 18-methyl-6α,7α,15β,16β-dimethylene-19-nor-20-spirox-4-en-3-one, which is over 30 times lower in comparison with Mirena®.

human androgen receptor = biological target: T1, human androgen receptor (Homo sapiens, UniProt P10275); assay: hAR transactivation in PC3 cells stably transfected with hAR and MTV-luc reporter gene; assay type: cell-based; conditions: hAR, MTV-luc reporter
T1 construct: expressed in transfected cells; host or cells: PC3 (human prostate carcinoma) cells, stably transfected with hAR and the MTV-luc reporter
T1 sequence (P10275 1-920): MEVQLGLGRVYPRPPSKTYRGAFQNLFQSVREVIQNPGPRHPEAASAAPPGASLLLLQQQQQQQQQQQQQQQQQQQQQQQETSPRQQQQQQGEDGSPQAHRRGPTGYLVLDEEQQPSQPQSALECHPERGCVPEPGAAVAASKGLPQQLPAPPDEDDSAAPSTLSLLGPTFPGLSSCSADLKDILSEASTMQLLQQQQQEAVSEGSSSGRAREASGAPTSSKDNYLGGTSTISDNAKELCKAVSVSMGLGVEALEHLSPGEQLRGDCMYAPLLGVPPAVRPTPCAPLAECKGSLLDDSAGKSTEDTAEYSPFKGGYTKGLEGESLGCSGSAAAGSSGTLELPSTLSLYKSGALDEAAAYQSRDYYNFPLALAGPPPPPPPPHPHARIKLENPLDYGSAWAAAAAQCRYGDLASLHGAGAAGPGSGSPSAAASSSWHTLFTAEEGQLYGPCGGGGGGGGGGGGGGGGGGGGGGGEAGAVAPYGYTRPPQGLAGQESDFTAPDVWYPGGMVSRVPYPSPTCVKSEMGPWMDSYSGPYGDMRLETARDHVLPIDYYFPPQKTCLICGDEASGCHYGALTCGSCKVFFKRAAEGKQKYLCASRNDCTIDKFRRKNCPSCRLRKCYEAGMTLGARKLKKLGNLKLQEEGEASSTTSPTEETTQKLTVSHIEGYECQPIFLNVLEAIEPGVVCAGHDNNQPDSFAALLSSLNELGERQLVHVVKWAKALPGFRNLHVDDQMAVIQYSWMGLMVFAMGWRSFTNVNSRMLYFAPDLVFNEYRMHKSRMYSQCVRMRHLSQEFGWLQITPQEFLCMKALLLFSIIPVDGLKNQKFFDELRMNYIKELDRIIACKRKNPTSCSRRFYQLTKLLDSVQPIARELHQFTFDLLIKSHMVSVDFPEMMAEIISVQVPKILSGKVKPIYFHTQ
Method: For this, different concentrations of the test substances were to cells with stable expression of the human androgen receptor, and activation of the androgen receptor can be detected via a reporter gene.
For transactivation studies, PC3 (human prostate carcinoma) cells which have been stably transfected with hAR and the MTV-luc reporter gene were used. […] The cells were cultured at 37° C. and 5% CO2. The test medium corresponded to the culture medium, except that 10% FCS was replaced with 5% activated carbon-treated FCS (CCS). Cells were seeded in wells of a 96 well plate (“CulturPlate” from Packard #6005180) with 2×10^4 cells/well/200 μl of test medium. The cells were incubated with different concentrations of the test substances, and 80 μl of substrate were measured using the “steadylite HTS Reporter Gene Assay System” from Perkin Elmer.

[4] = In vivo break-down in animal species; conditions: all animal species studied in vivo
luteinizing hormone (LH) = assay: Serum LH level in ovary-resected rats carrying IUS (rod), as a sign of systemic effect; assay type: in vivo, rat; conditions: FIG. 2/4
Method: Serum levels of luteinizing hormone (LH) are used for detecting systemic effects of the locally administered progestin. Basal serum-LH levels of ovary-resected rats are elevated compared to the LH levels of intact control animals. Undesired systemic efficacy of the uterine-administered progestin can be detected by a decrease in the LH level.
(§1) Ovary-resected female rats were treated with estradiol (E2) for three days (0.2 μg/day/animal, subcutaneous dosing). On day 4, an IUS (rod) was implanted into the right uterine horn of each animal. The left uterine horn remained untreated for internal comparison. Administration of E2 was continued with a daily dose of 0.1 μg/animal to ensure responsiveness of the uterus (maintaining progesterone-receptor expression) to progestins. Blood was taken for LH level measurements on days 4, 10 and 17.

uterus = assay: Uterine horn weight gain after implantation of progestin-containing IUS (rod) in ovary-resected rats; assay type: in vivo, rat; conditions: IUS (rod) in right uterine horn, FIG. 1/4
Method: (§2) The local uterine action of the progestin compared to systemic side effects (dissociation) was investigated on the basis of studies using rats. The uterus of ovary-resected rats responds to implantation of progestin-containing IUS (rods) with decidualization and weight gain. The local progestin effects were also determined on the basis of changes in gene expression.
as §1

IGFBP-1 = assay: Gene expression analysis of marker genes in uterine tissue of rats carrying IUS (rods); assay type: in vivo; conditions: rat uterus, FIG. 3/4
Method: as §2
as §1, with “17. […]” for “17.”
Gene expression analysis was carried out with from 50 ng to 200 ng of cDNA per reaction on an SDS7900HT Real.time PCR system (Applied Biosystems, Carlsbad, USA) using TaqMan probes (Applied Biosystems; IGFBP-1 Rn00565713_m1, Cyp26a1 Rn00590308_m1, PPIA Rn00690933_m1) and the Fast Blue qPCR MasterMix Plus (Eurogentec, Liège, Belgium; #RT-QP2X-03+FB). For relative quantification, cyclophilin A (PPIA) was used as an endogenous control. Relative expression levels were calculated according to the comparative delta delta CT method.

[5] = dose range tested: compound A 0.6-10 μg per animal and day, compound B 1-45 μg/animal and day

Structure (SMILES) | average plasma levels of active ingredient [1] | break-down rate in in-vitro metabolic studies (liver) [2] | break-down rate in vitro (liver) for humans [3] | EC50 (human androgen receptor) [nM] | break-down rate in vivo [4] | LH decrease (systemic side effect) (luteinizing hormone (LH); [5]) | local efficacy by way of weight gain in the IUS-carrying uterine horn (uterus) | LH decrease (systemic side effect) (luteinizing hormone (LH); 10 μg/animal and day dose) | rate of release from the IUS at which IGFBP-1 gene expression is induced, lower than with levonorgestrel (IGFBP-1)
C#C[C@]1(O)CC[C@H]2[C@@H]3CCC4=CC(=O)CC[C@@H]4[C@H]3CC[C@@]21CC [levonorgestrel] | around 206 pg/ml |  |  |  |  |  |  |  | 
CC[C@]12CCC3C4CCC(=O)C=C4C4CC4C3C1[C@@H]1C[C@@H]1[C@@]21CCCO1 (stereo partly drawn) [compound B, 18-methyl-6α,7α,15β,16β-dimethylene-19-nor-20-spirox-4-en-3-one] |  | very fast break-down rate | Very rapid break-down rates | 56 | very fast break-down rate | no LH decrease | dose-dependent local efficacy by way of weight gain |  | 
CC[C@]12CCC3C4CCC(=O)C=C4CCC3C1[C@@H]1C[C@@H]1[C@@]21CCCO1 (stereo partly drawn) [compound A, 18-methyl-15β,16β-methylene-19-nor-20-spirox-4-en-3-one] |  | very fast break-down rate | Very rapid break-down rates |  | very fast break-down rate | no LH decrease | dose-dependent local efficacy by way of weight gain | exception | approx. 7 ×
